Measured values reported in ChEMBL document CHEMBL5226370, “Selective Inhibition of Organic Cation Transporter 1 by Benzoylpaeoniflorin Attenuates Hepatic Lipid Accumulation through AMPK Activation” (J Nat Prod, 2023).
Activity calls are given as the source filed them. No cut-off for these calls is given here.

How the values were obtained:
[1] = system: HEK293; assay: Cytotoxicity against HEK293 cells harboring empty vector assessed as reduction in cell viability at 250 uM incubated for 12 hrs by resazurin dye based assay; type: toxicity; settings: human, hek293, 12 h
[2] = molecular target: T1, Solute carrier family 22 member 1 (Homo sapiens, UniProt O15245); assay: Inhibition of OCT1(unknown origin)-mediated ASP+ uptake in HEK293 cells expressing OCT1 using ASP+ as substrate incubated for 5 mins; type: cell-based
T1 sequence (O15245 whole entry): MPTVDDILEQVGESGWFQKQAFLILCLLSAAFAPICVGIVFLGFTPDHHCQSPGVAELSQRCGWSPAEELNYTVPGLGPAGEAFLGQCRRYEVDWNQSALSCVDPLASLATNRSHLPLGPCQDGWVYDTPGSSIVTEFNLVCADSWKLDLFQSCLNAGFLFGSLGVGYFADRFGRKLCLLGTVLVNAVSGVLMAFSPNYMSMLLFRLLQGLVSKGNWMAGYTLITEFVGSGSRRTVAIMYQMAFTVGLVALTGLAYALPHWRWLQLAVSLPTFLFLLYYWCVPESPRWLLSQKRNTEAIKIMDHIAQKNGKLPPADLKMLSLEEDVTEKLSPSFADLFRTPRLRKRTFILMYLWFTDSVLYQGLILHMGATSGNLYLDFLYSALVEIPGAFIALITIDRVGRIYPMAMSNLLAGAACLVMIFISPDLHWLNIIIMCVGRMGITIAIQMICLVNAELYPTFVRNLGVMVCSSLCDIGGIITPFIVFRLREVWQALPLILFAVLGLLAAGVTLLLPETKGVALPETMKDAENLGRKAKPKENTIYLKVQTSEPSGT

[3] = system: HEK293; assay: Cytotoxicity against HEK293 cells expressing OCT2 assessed as reduction in cell viability at 250 uM incubated for 12 hrs by resazurin dye based assay; type: toxicity; settings: human, hek293, 12 h
[4] = molecular target: T2, Solute carrier family 22 member 2 (Homo sapiens, UniProt O15244); assay: Inhibition of OCT2(unknown origin)-mediated ASP+ uptake in HEK293 cells expressing OCT2 using ASP+ as substrate incubated for 5 mins; type: cell-based
T2 sequence (O15244 whole entry): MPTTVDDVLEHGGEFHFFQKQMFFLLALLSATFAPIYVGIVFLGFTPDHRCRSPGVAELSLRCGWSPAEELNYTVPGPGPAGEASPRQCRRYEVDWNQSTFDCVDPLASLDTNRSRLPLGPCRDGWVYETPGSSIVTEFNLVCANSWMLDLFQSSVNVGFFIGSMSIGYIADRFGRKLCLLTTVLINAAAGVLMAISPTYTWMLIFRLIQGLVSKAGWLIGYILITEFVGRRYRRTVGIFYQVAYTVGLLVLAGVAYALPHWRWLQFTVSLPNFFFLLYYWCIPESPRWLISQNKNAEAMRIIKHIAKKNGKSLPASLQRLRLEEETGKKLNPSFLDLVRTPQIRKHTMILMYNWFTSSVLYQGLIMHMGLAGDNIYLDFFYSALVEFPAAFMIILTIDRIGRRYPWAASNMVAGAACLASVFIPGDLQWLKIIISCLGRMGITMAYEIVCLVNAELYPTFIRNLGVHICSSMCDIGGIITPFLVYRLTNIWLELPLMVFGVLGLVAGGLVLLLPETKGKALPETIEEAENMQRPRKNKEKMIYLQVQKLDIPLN

[5] = molecular target: T3, OCT1 (SLC22A1) (Homo sapiens, UniProt O15245); assay: Inhibition of OCT1(unknown origin)-mediated ASP+ uptake in HEK293 cells expressing OCT1 using ASP+ as substrate at 50 uM incubated for 5 mins by fluorescence based microplate reader analysis relative to control; type: cell-based; settings: HEK293 cells expressing OCT1, probe ASP+
T3 sequence (O15245 whole entry): T1 sequence (O15245 whole entry)

[6] = system: HEK293; assay: Cytotoxicity against HEK293 cells expressing OCT1 assessed as reduction in cell viability at 250 uM incubated for 12 hrs by resazurin dye based assay; type: toxicity; settings: human, hek293, 12 h
[7] = system: HEK293; assay: Selectivity index, ratio of IC50 for inhibition of OCT2(unknown origin)-mediated ASP+ uptake in HEK293 cells expressing OCT2 to IC50 for inhibition of OCT1(unknown origin)-mediated ASP+ uptake in HEK293 cells expressing OCT1; type: cell-based; settings: Homo sapiens
[8] = Activation of AMPK signalling pathway in human L02 cells expressing OCT1 assessed as increase in AMPK phosphorylation at 2.5 to 10 uM incubated for 1 to 24 hrs by Western blot analysis; type: cell-based; settings: filed as activator, dose 2.5-10 µM, time 1-24 hrs
[9] = system: HepG2; assay: Inhibition of FFA-induced lipid accumulation in human HepG2 cells expressing OCT1 assessed as decrease in triglyceride level at 10 uM incubated for 24 hrs; type: functional, cell-based
[10] = Activation of AMPK signalling pathway in human L02 cells expressing OCT1 assessed as decrease in FASN mRNA expression at 2.5 to 10 uM incubated for 1 to 24 hrs by qRT-PCR analysis; type: cell-based; settings: filed as activator, dose 2.5-10 µM, time 1-24 hrs
[11] = system: L02; assay: Inhibition of FFA-induced lipid accumulation in human L02 cells expressing OCT1 assessed as decrease in triglyceride level at 10 uM incubated for 24 hrs; type: functional, cell-based
[12] = system: HepG2; assay: Inhibition of FFA-induced lipid accumulation in human HepG2 cells expressing OCT1 at 10 uM incubated for 24 hrs by Oil Red O staining based microscopic analysis; type: functional, cell-based
[13] = Activation of AMPK signalling pathway in human HepG2 cells expressing OCT1 assessed as increase in AMPK phosphorylation at 2.5 to 10 uM incubated for 1 to 24 hrs by Western blot analysis; type: cell-based; settings: filed as activator, dose 2.5-10 µM, time 1-24 hrs
[14] = Activation of AMPK signalling pathway in human HepG2 cells expressing OCT1 assessed as decrease in FASN mRNA expression at 2.5 to 10 uM incubated for 1 to 24 hrs by qRT-PCR analysis; type: cell-based; settings: filed as activator, dose 2.5-10 µM, time 1-24 hrs
[15] = Activation of AMPK signalling pathway in human HepG2 cells expressing OCT1 assessed as decrease in ACC mRNA expression at 2.5 to 10 uM incubated for 1 to 24 hrs by qRT-PCR analysis; type: cell-based; settings: filed as activator, dose 2.5-10 µM, time 1-24 hrs
[16] = Activation of AMPK signalling pathway in human L02 cells expressing OCT1 assessed as decrease in ACC mRNA expression at 2.5 to 10 uM incubated for 1 to 24 hrs by qRT-PCR analysis; type: cell-based; settings: filed as activator, dose 2.5-10 µM, time 1-24 hrs
[17] = system: L02; assay: Inhibition of FFA-induced lipid accumulation in human L02 cells expressing OCT1 at 10 uM incubated for 24 hrs by Oil Red O staining based microscopic analysis; type: functional, cell-based

SMILES	Activity [1]	IC50 [2]	Activity [3]	IC50 [4]	inhibition at 5 min, 50 µM [5]	Activity [6]	Ratio IC50 [7]	Activity [8]	inhibition [9]	Activity [10]	inhibition [11]	inhibition [12]	Activity [13]	Activity [14]	Activity [15]	Activity [16]	inhibition [17]
COc1cc(O)c2c(c1)oc(=O)c1c3cc(O)c(O)cc3oc21 [WEDELOLACTONE]	Non-Toxic	38.4 µM	Non-Toxic	17.3 µM	> 50%	Non-Toxic	–	–	–	–	–	–	–	–	–	–	–
NC12CC3CC(CC(C3)C1)C2 [AMANTADINE]	–	39.6 µM	–	45.9 µM	–	–	1.16	–	–	–	–	–	–	–	–	–	–
O=c1cc(-c2ccc(O)cc2)oc2cc(O)cc(O)c12 [APIGENIN]	Non-Toxic	38.9 µM	Non-Toxic	30.9 µM	> 50%	Non-Toxic	–	–	–	–	–	–	–	–	–	–	–
O=c1cc(-c2ccc(O)c(O)c2)oc2cc(O)cc(O)c12 [LUTEOLIN]	Non-Toxic	46.1 µM	Non-Toxic	41 µM	> 50%	Non-Toxic	–	–	–	–	–	–	–	–	–	–	–
C[C@@H]1CC[C@@]2(OC1)O[C@H]1C[C@H]3[C@@H]4CC=C5C[C@@H](O)C[C@@H](O[C@@H]6O[C@H](C)[C@H](O)[C@H](O[C@@H]7OC[C@@H](O)[C@H](O)[C@H]7O)[C@H]6O[C@@H]6O[C@@H](C)[C@H](O)[C@@H](O)[C@H]6O)[C@]5(C)[C@H]4CC[C@]3(C)[C@H]1[C@@H]2C	Non-Toxic	41.3 µM	Non-Toxic	19.1 µM	> 50%	Non-Toxic	–	–	–	–	–	–	–	–	–	–	–
CC(C)=CCc1cc(-c2cc(=O)c3c(O)cc(O)c(CC=C(C)C)c3o2)cc(O)c1O	Non-Toxic	40.2 µM	Non-Toxic	33.1 µM	> 50%	Non-Toxic	–	–	–	–	–	–	–	–	–	–	–
COc1ccc(-c2oc3cc(OC)cc(OC)c3c(=O)c2OC)cc1 [TETRAMETHYLKAEMPFEROL]	Non-Toxic	47 µM	Non-Toxic	39.5 µM	> 50%	Non-Toxic	–	–	–	–	–	–	–	–	–	–	–
CC(C)=CCc1c(O)cc(O)c2c(=O)c(O[C@@H]3O[C@@H](C)[C@H](O)[C@@H](O)[C@H]3O[C@@H]3O[C@H](CO)[C@@H](O)[C@H](O)[C@H]3O)c(-c3ccc(O)cc3)oc12	Non-Toxic	11.2 µM	Non-Toxic	56.5 µM	> 50%	Non-Toxic	–	–	–	–	–	–	–	–	–	–	–
C/C=C1\C2CC(=O)OC[C@@H](c3ccc(O)c(O)c3)OC[C@H]3O[C@@H](O[C@@H]1OC=C2C(=O)OC)[C@H](O)[C@@H](O)[C@@H]3O	Non-Toxic	47.3 µM	Non-Toxic	1270 µM	> 50%	Non-Toxic	–	–	–	–	–	–	–	–	–	–	–
CNC(=C[N+](=O)[O-])NCCSCc1ccc(CN(C)C)o1 [RANITIDINE]	–	28 µM	–	1620 µM	–	–	39.6	–	–	–	–	–	–	–	–	–	–
C[C@H]1O[C@@H](O[C@H]2CC[C@@]3(C)[C@@H](CC[C@]4(C)[C@@H]3C=CC3=C5CC(C)(C)CC[C@]5(CO)[C@@H](O)C[C@]34C)[C@]2(C)CO)[C@H](O)[C@@H](O[C@@H]2O[C@H](CO)[C@@H](O)[C@H](O)[C@H]2O)[C@H]1O	Non-Toxic	35.2 µM	Non-Toxic	69.5 µM	> 50%	Non-Toxic	–	–	–	–	–	–	–	–	–	–	–
C[C@@]12C[C@@]3(O)O[C@@H](O1)[C@]1(COC(=O)c4ccccc4)[C@H]3C[C@@]12O[C@@H]1O[C@H](COC(=O)c2ccccc2)[C@@H](O)[C@H](O)[C@H]1O	Non-Toxic	3.46 µM	Non-Toxic	4120 µM	> 50%	Non-Toxic	> 1000	Active	Active	Active	Active	Active	Active	Active	Active	Active	Active
